Data on eight molecules can be found in article PMC11211329, “Phage-encoded bismuth bicycles enable instant access to targeted bioactive peptides” (Communications Chemistry, 2024).

Several values for one entry are separate records, joined by “and”; a condition that tells them apart may be missing. Identical values can stand only once. Peptide text beside a SMILES is read from it.

The target of one data set is T1, streptavidin (Streptomyces avidinii, UniProt P22629).
T1 construct: purchased New England Biolabs
T1 sequence (P22629 25-183): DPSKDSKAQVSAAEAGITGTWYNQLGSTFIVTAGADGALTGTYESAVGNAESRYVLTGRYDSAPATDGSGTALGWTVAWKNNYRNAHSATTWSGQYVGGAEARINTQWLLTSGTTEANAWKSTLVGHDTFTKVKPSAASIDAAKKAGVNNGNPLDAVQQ
Briefly: biochemical. To be noted: for affinity towards streptavidin (in words) / Response / affinity of linear versus bicyclic peptide (in words): SPR. It counts as binding. On the procedure:
SPR measurements were performed with 20 mM HEPES–KOH pH 7.4, 150 mM NaCl, 0.5 mM TCEP, 0.05% (v/v) polysorbate 20 as running buffer. For each experiment, 100–150 μg streptavidin in 10 mM sodium acetate pH 3.9 buffer was freshly immobilised on a sensor chip flow-cell using EDC/NHS chemistry at 25 °C in absence of TCEP. All binding experiments were conducted at 20 °C in single-cycle kinetics mode (Fig. 4, Supplementary Figs. 17, 18, Supplementary Data 2).
SPR experiments were performed on a Biacore 8K (Cytiva, USA) using a CM5 chip (Cytiva, 29104988, USA), onto which streptavidin (New England Biolabs, USA) was freshly immobilised using an amine coupling kit (Cytiva, USA) for each individual experiment. The instrument was operated using Biacore Insight 5 software (Cytiva, USA). The data were plotted and analysed in GraphPad Prism 10 (Dotmatics, USA) using the non-linear fit ‘one site – specific binding’ (Supplementary Equation 2). KD values of duplicate measurements are represented as the mean value ± standard deviation.
Supplementary Equation 2.
X = analyte concentration [µM]
RUmax = maximum response [RU]
KD = dissociation constant [µM]

Data set [1] concerns naïve three-cysteine phage library. Briefly: Plaque-forming assay, effect of bicyclisation reagent on phage infectivity. It counts as cell-based, M13 bacteriophage. To be noted: 120 μM, 5 min exposure. The protocol: bismuth(III). The reaction mixture was vortexed briefly once more and incubated at room […]
Modification with bismuth tripotassium dicitrate (gastrodenol)
Bismuth tripotassium dicitrate (gastrodenol) in ultrapure sterile water (50 mM) was added to the reduced phage solution while gently vortexing to a final volume of 1040 μL to obtain a final concentration of 120 μM bismuth(III). The reaction mixture was vortexed briefly once more and incubated at room temperature for 5 min.
Modification with sodium arsenite (NaAsO2)
Sodium arsenite (NaAsO2) in ultrapure sterile water (50 mM) was added to the reduced phage solution while gently vortexing to a final volume of 1040 μL to obtain a final concentration of 120 μM arsenic(III). The reaction mixture was vortexed briefly once more and incubated at room […]
An overnight culture of Escherichia coli ER2738 (New England Biolabs, E4104, USA), a strain commonly used for phage display, was prepared by growing the bacteria in tetracycline containing LB media at 37 °C for 16 h at 220 rpm. Aliquots of 3 mL of melted top agar were transferred into sterile polystyrene tubes (Corning, 352051, USA) and heated up to 50 °C on a dry bath (Thermo Fisher, 88870004, USA) until ready to use. A dilution series of the phage library was prepared as required, at a final volume of 1 mL, whereby a 10 μL portion of each phage dilution was added to 200 μL of the bacterial overnight culture, incubated for 5 min and transferred fully into a tube containing 3 mL top agar. The contents in the tube were gently mixed by vortexing and poured entirely on a warm LB/IPTG/X-Gal plate, allowing the top agar-mixture to spread evenly across the plate. The plate was allowed to solidify and left in an incubator oven overnight at 37 °C. The number of plaques was counted by selecting plates with plaques separated at a countable level.
The concentration of the original solution was then calculated in pfu/mL using the following equation (Supplementary Equation 1).
Supplementary Equation 1.
concentration of original phage library solution = number of plaques ∙ dilution factor [pfu/mL]
Effect of bicyclisation reagent on phage infectivity
To evaluate the impact of bismuth(III) and arsenic(III) on the infectivity of the naïve three-cysteine phage library, phage titres were measured both before and after the addition of the metal(loid).
Accordingly, for each modification experiment three 1000 μL aliquots of ~1011 pfu/mL of freshly amplified naïve phage library in PBS were set aside and subjected to a plaque-forming assay to determine their titre. Next, these library aliquots were individually exposed to either 120 μM bismuth(III) from BiBr3 (50 mM DMSO) or gastrodenol (50 mM in ultrapure water) or 120 μM arsenic(III) from NaAsO2 (50 mM in ultrapure water), with each reagent being used for the modification of three library aliquots. During addition of the thiophilic element, the reaction mixtures were briefly vortexed and incubated at room temperature for 5 min. Excess reagent was removed from the modified phage library solution using spin desalting columns (Thermo Fisher, 89883, USA) at 2000 × g for 2.5 min. The titre of the modified phage solution was subsequently determined using the plaque-forming assay, which was also performed in triplicate. A parallel experiment was conducted using the addition of PBS as the control. Phage titres before and after their respective modification were plotted in GraphPad Prism 10 (Dotmatics, USA) […]
Supplementary Fig. 20. […]

In the case of `CC(C)[C@@H]1NC(=O)[C@H](CCC(N)=O)NC(=O)[C@@H]2CCCN2C(=O)[C@H](Cc2c[nH]cn2)NC(=O)[C@@H](NC(=O)[C@H](C)N)CS[As]2SC[C@@H](C(N)=O)NC(=O)[C@H](CCC(=O)O)NC(=O)[C@H]([C@@H](C)O)NC(=O)[C@@H]3CCCN3C(=O)[C@H](CO)NC(=O)[C@H](CS2)NC1=O` [4a], binding on streptavidin was put at a Kd of 42.8 ± 3.5 µM. In addition, the “affinity towards streptavidin (in words)” value at streptavidin is on record as “micromolar affinity”. Besides, the Response on streptavidin (0.390625 μM peptide) was 3.3313 RU and 3.9342 RU; on streptavidin (0.78125 μM peptide), 3.4046 RU and 4.4109 RU; at streptavidin (1.5625 μM peptide), 4.0632 RU and 5.3459 RU; on streptavidin (3.125 μM peptide), 6.3333 RU and 7.9821 RU; at streptavidin (6.25 μM peptide) it was 11.621 RU and 13.3151 RU; on streptavidin (12.5 μM peptide) it was 22.2246 RU and 23.8712 RU. The Response on streptavidin (25 μM peptide) was 39.0098 RU and 40.7076 RU; at streptavidin (50 μM peptide), 57.9196 RU and 59.6228 RU; on streptavidin (100 μM peptide), 73.3509 RU and 75.0552 RU.

Turning to `CC(C)[C@@H]1NC(=O)[C@H](CCC(N)=O)NC(=O)[C@@H]2CCCN2C(=O)[C@H](Cc2c[nH]cn2)NC(=O)[C@@H](NC(=O)[C@H](C)N)C[S][Bi]2[S]C[C@@H](C(N)=O)NC(=O)[C@H](CCC(=O)O)NC(=O)[C@H]([C@@H](C)O)NC(=O)[C@@H]3CCCN3C(=O)[C@H](CO)NC(=O)[C@H](C[S]2)NC1=O` [4b], the “affinity towards streptavidin (in words)” value at streptavidin is “two-digit micromolar dissociation constants”. Besides, the Response at streptavidin (0.78125 μM peptide) amounted to 5.1388 RU; at streptavidin (1.5625 μM peptide) it was 8.1368 RU; at streptavidin (3.125 μM peptide), 20.2314 RU; on streptavidin (6.25 μM peptide) it was 72.2878 RU; on streptavidin (12.5 μM peptide), 222.296 RU; on streptavidin (25 μM peptide), 413.089 RU. For the same molecule, the Response is listed as 508.05 RU at streptavidin (50 μM peptide), 531.655 RU at streptavidin (100 μM peptide) and 538.328 RU at streptavidin (200 μM peptide).

In the case of `[Bi+3]` [Bi(III)], in data set [1], the “effect on phage infectivity” value is recorded as “uncompromised”.

Regarding `[Br][Bi]([Br])[Br]` [BiBr3, bismuth tribromide], the “effect on phage infectivity” value in data set [1] is “no relevant negative effect”.

For the molecule `O=[As][O-].[Na+]` [NaAsO2, sodium arsenite], the “effect on phage infectivity” value is reported as “no relevant negative effect” in data set [1] and “uncompromised” in data set [1] (listed as As(III)).

`C[C@H](N)C(=O)N[C@@H](CS)C(=O)N1CCC[C@H]1C(=O)N[C@@H](Cc1c[nH]cn1)C(=O)N1CCC[C@H]1C(=O)N[C@@H](CCC(N)=O)C(=O)N[C@@H](CS)C(=O)N[C@@H](CCC(=O)O)C(=O)N[C@@H](C)C(=O)N[C@@H](C)C(=O)N[C@@H](C)C(=O)N[C@@H](CS)C(N)=O` [compound 2] (H-ACPHPQCEAAAC-NH2) came in with a Kd at streptavidin of 1520 µM. The “affinity of linear versus bicyclic peptide (in words)” value on streptavidin is recorded as “two orders of magnitude lower affinity”. Moreover, the Response was 3.2958 RU on streptavidin (15.625 μM peptide); 3.9468 RU on streptavidin (31.25 μM peptide); 5.3014 RU at streptavidin (62.5 μM peptide); 8.119 RU on streptavidin (125 μM peptide); 13.0777 RU at streptavidin (250 μM peptide); 20.3557 RU at streptavidin (500 μM peptide). For the same molecule, the values for the Response at streptavidin (1000 μM peptide), at streptavidin (2000 μM peptide) and at streptavidin (4000 μM peptide) were 32.6253 RU, 47.8172 RU and 62.2756 RU, respectively.

Turning to `C[C@H](N)C(=O)N[C@@H](CS)C(=O)N[C@@H](Cc1c[nH]cn1)C(=O)N1CCC[C@H]1C(=O)N[C@@H](CCC(N)=O)C(=O)N[C@@H](CC(N)=O)C(=O)N[C@@H](CS)C(=O)N[C@H](C(=O)N[C@@H](CCC(=O)O)C(=O)N1CCC[C@H]1C(=O)N[C@@H](C)C(=O)N[C@@H](CS)C(N)=O)[C@@H](C)O` [compound 3] (H-ACHPQNCTEPAC-NH2), the Kd at streptavidin amounted to 927 µM. In addition, the “affinity of linear versus bicyclic peptide (in words)” value on streptavidin is listed as “two orders of magnitude lower affinity”. Further, the Response is given as 4.8115 RU at streptavidin (11.7188 μM peptide); 6.9877 RU on streptavidin (23.4375 μM peptide); 10.9154 RU at streptavidin (46.875 μM peptide); 18.7272 RU at streptavidin (93.75 μM peptide); 34.0455 RU on streptavidin (187.5 μM peptide); 61.2377 RU at streptavidin (375 μM peptide). Moreover, the figures for the Response on streptavidin (750 μM peptide), at streptavidin (1500 μM peptide) and at streptavidin (3000 μM peptide) were 109.838 RU, 163.522 RU and 172.646 RU, respectively.

With `O=C([O-])CC(O)(CC(=O)[O-])C(=O)[O-].O=C([O-])CC(O)(CC(=O)[O-])C(=O)[O-].[Bi+3].[K+].[K+].[K+]` [gastrodenol, bismuth tripotassium dicitrate], in data set [1], the “effect on phage infectivity” value is “no relevant negative effect”.

What is called Kd is a measure of binding affinity in units of concentration. Lower therefore signals higher affinity.
